pKi: −log10 of the molar value.
Biological target: Cannabinoid receptor 1 (Mus musculus, UniProt P47746)
Test: Displacement of [3H]CP-55940 from CB1R in C57Bl/6Jhsd mouse cortex membrane incubated for 1 hr by liquid scintillation counter analysis

Cannabinoid receptor 1, sequence (P47746 whole entry): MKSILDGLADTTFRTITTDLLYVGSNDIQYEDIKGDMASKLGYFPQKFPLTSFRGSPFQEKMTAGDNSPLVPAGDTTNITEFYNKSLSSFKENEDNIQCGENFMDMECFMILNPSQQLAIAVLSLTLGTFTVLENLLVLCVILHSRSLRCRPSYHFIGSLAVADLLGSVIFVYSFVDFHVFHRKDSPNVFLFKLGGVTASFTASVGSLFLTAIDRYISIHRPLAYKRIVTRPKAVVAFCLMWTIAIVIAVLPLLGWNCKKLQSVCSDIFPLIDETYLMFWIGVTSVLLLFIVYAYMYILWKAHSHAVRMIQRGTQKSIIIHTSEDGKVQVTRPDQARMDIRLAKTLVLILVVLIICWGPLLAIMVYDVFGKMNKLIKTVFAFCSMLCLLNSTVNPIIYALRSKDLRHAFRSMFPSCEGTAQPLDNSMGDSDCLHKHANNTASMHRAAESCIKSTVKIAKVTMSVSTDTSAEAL

## CCOC(=O)N1CCC(N[C@H]2CCCOc3c2nn(-c2ccccc2Cl)c3-c2ccc(Cl)cc2)CC1
  pKi: 8.05

Source: BindingDB's records for PubMed 40258217 (The Hebrew University of Jerusalem)
